Reference: BindingDB's records for doi:10.1021/jm060199b (Abbott Laboratories, 2006)

Target: Mitogen-activated protein kinase 8 (Homo sapiens, UniProt P45983)
Experiment: ATF-2 Phosphorylation Assay

Sequence of Mitogen-activated protein kinase 8 (P45983 whole entry): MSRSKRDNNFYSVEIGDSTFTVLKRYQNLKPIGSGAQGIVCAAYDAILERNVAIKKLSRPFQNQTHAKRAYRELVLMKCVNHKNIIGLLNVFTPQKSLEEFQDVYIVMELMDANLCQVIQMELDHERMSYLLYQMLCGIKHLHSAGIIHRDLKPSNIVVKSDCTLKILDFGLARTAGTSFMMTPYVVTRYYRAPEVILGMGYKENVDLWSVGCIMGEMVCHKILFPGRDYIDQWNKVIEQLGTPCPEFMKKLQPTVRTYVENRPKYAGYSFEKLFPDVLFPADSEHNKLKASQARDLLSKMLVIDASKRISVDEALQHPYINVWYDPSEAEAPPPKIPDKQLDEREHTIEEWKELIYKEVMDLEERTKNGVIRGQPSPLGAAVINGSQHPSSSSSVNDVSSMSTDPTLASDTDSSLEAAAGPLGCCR

IC50: > 10 µM
Structure (SMILES): CCOc1cccc(NC(C)=O)n1 [N-(6-ethoxypyridin-2-yl)acetamide]
